From patent US5525626A (priority 1989, dated 1996)

Assays:
Assay in all cases: 3H-thymidine assay
Format in all cases: cell-based
[1] = test system: Tp 410 N neuroblastoma cells; conditions: Homo sapiens, Neuroblastoma cell
Daudi leukemic cells = conditions: Homo sapiens
G-361 melanoma cells = conditions: Homo sapiens
[2] = test system: Z-R-75-1 breast cancer cells; conditions: Homo sapiens
[3] = test system: Tp 483 MG glioblastoma cells
HCV cells = test system: HCV cells
K-562 leukemic cells = conditions: Homo sapiens
Method: (§1) The cell lines were cultivated as indicated in Example 1.
(§2) The antiproliferative effect of the 1,2-benzopyrone derivatives according to the invention on the tumor cell lines in each case was shown with the help of the ^3 H-thymidine insertion and with reference to growth curves.
(§3) In a 24-well-plate, in each case 10^4 cells of the line to be investigated were inoculated per well. Approximately 48 hours later the cells were half-confluent; the medium was then changed and replaced by a medium containing the active substance in question (cf Table 3). After a further 48 hours 0.25 μCi ^3 H-thymidine (Ammersham) was added to each well and the cells were incubated for a further 24 hours. Subsequently the cultures were washed twice with ice-cold PBS and the high-molecular-weight ^3 H-radioactivity was precipitated with 5% trichloroacetic acid for one hour at 4° C. After the washing of the cells in PBS the ^3 H-radioactivity was solubilized with 0.3M NaOH and measured in the counter. The growth-inhibition was determined by comparing the thymidine insertion of the cells treated with active substance with untreated cells.
(§4) The active substance concentration in each case was so chosen that ^3 H-thymidine insertion was 50% inhibited. The active substance concentrations used under this aspect for the active substances and cell lines in each case are given in table 4 below in μM/ml, […]

[4] = test system: MCF-7 breast cancer cells; conditions: Homo sapiens
Method: as §1, §2, §3, §4

CAKI-1 cells = conditions: Homo sapiens
Method: as §1, §2, §3, §4

At T 20 = conditions: Mus musculus
Method: as §1, §2, §3, §4

[5] = read-out: 3H-thymidine insertion (%) of control
[6] = read-out: active substance concentration at which 3H-thymidine insertion was 50% inhibited
[7] = read-out: 3H-thymidine tracer (%) of control
[8] = G-361, read-out: 3H-thymidine tracer (%) of control
[9] = ZR-75-1, read-out: 3H-thymidine tracer (%) of control
[10] = K562, read-out: 3H-thymidine tracer (%) of control
[11] = MCF7, read-out: 3H-thymidine tracer (%) of control
[12] = CAKI-1, read-out: 3H-thymidine tracer (%) of control
[13] = AtT20, read-out: 3H-thymidine tracer (%) of control

Compound: O=c1ccc2cc(O[C@@H]3O[C@H](CO)[C@@H](O)[C@H](O)[C@H]3O)c(O)cc2o1 [Esculin, 6-beta-D-glucopyranosyloxy-7-hydroxy-1,2-benzopyrone]
- activity at 1 µM [1, 5]: 100%
- activity at 2 µM [1, 5]: 96%
- activity at 4 µM [1, 5]: 85%
- activity at 8 µM [1, 5]: 76%
- activity at 16 µM [1, 5]: 69%
- activity at 25 µM [1, 5]: 62%
- activity at 50 µM [1, 5]: 54%
- activity at 100 µM [1, 5]: 43%
- activity at 250 µM [1, 5]: 38%
- activity at 500 µM [1, 5]: 30%
- IC50 [1, 6]: 75 µM
- activity at 1 µM (Daudi leukemic cells; [7]): 100%
- activity at 2 µM (Daudi leukemic cells; [7]): 98%
- activity at 4 µM (Daudi leukemic cells; [7]): 93%
- activity at 8 µM (Daudi leukemic cells; [7]): 87%
- activity at 16 µM (Daudi leukemic cells; [7]): 80%
- activity at 25 µM (Daudi leukemic cells; [7]): 71%
- activity at 50 µM (Daudi leukemic cells; [7]): 69%
- activity at 100 µM (Daudi leukemic cells; [7]): 52%
- activity at 250 µM (Daudi leukemic cells; [7]): 48%
- activity at 500 µM (Daudi leukemic cells; [7]): 44%
- IC50 (Daudi leukemic cells; [6]): 100 µM
- activity at 1 µM (G-361 melanoma cells; [8]): 98%
- activity at 2 µM (G-361 melanoma cells; [8]): 94%
- activity at 4 µM (G-361 melanoma cells; [8]): 90%
- activity at 8 µM (G-361 melanoma cells; [8]): 86%
- activity at 16 µM (G-361 melanoma cells; [8]): 81%
- activity at 25 µM (G-361 melanoma cells; [8]): 74%
- activity at 50 µM (G-361 melanoma cells; [8]): 70%
- activity at 100 µM (G-361 melanoma cells; [8]): 63%
- activity at 250 µM (G-361 melanoma cells; [8]): 60%
- activity at 500 µM (G-361 melanoma cells; [8]): 54%
- IC50 (G-361 melanoma cells; G-361, read-out: active substance concentration at which 3H-thymidine insertion was 50% inhibited): > 500 µM
- activity at 1 µM [2, 9]: 100%
- activity at 2 µM [2, 9]: 97%
- activity at 4 µM [2, 9]: 89%
- activity at 8 µM [2, 9]: 85%
- activity at 16 µM [2, 9]: 75%
- activity at 25 µM [2, 9]: 72%
- activity at 50 µM [2, 9]: 64%
- activity at 100 µM [2, 9]: 56%
- activity at 250 µM [2, 9]: 51%
- activity at 500 µM [2, 9]: 47%
- IC50 ([2]; ZR-75-1, read-out: active substance concentration at which 3H-thymidine insertion was 50% inhibited): 250 µM
- activity at 1 µM [3, 5]: 99%
- activity at 2 µM [3, 5]: 97%
- activity at 4 µM [3, 5]: 89%
- activity at 8 µM [3, 5]: 83%
- activity at 16 µM [3, 5]: 74%
- activity at 25 µM [3, 5]: 66%
- activity at 50 µM [3, 5]: 54%
- activity at 100 µM [3, 5]: 51%
- activity at 250 µM [3, 5]: 48%
- activity at 500 µM [3, 5]: 45%
- IC50 [3, 6]: 100 µM
- activity at 1 µM (HCV cells; [7]): 100%
- activity at 2 µM (HCV cells; [7]): 98%
- activity at 4 µM (HCV cells; [7]): 95%
- activity at 8 µM (HCV cells; [7]): 89%
- activity at 16 µM (HCV cells; [7]): 86%
- activity at 25 µM (HCV cells; [7]): 83%
- activity at 50 µM (HCV cells; [7]): 79%
- activity at 250 µM (HCV cells; [7]): 76%
- activity at 500 µM (HCV cells; [7]): 75%
- IC50 (HCV cells; [6]): > 500 µM
- activity at 1 µM (K-562 leukemic cells; [10]): 100%
- activity at 2 µM (K-562 leukemic cells; [10]): 100%
- activity at 4 µM (K-562 leukemic cells; [10]): 96%
- activity at 8 µM (K-562 leukemic cells; [10]): 88%
- activity at 16 µM (K-562 leukemic cells; [10]): 81%
- activity at 25 µM (K-562 leukemic cells; [10]): 72%
- activity at 50 µM (K-562 leukemic cells; [10]): 70%
- activity at 100 µM (K-562 leukemic cells; [10]): 58%
- activity at 250 µM (K-562 leukemic cells; [10]): 51%
- activity at 500 µM (K-562 leukemic cells; [10]): 40%
- IC50 (K-562 leukemic cells; K562, read-out: active substance concentration at which 3H-thymidine insertion was 50% inhibited): 250 µM
- activity at 1 µM [4, 11]: 99%
- activity at 2 µM [4, 11]: 91%
- activity at 4 µM [4, 11]: 88%
- activity at 8 µM [4, 11]: 80%
- activity at 16 µM [4, 11]: 71%
- activity at 25 µM [4, 11]: 69%
- activity at 50 µM [4, 11]: 62%
- activity at 100 µM [4, 11]: 51%
- activity at 250 µM [4, 11]: 49%
- activity at 500 µM [4, 11]: 42%
- IC50 ([4]; MCF7, read-out: active substance concentration at which 3H-thymidine insertion was 50% inhibited): > 100 µM
- activity at 1 µM (CAKI-1 cells; [12]): 100%
- activity at 2 µM (CAKI-1 cells; [12]): 94%
- activity at 4 µM (CAKI-1 cells; [12]): 92%
- activity at 8 µM (CAKI-1 cells; [12]): 83%
- activity at 16 µM (CAKI-1 cells; [12]): 78%
- activity at 25 µM (CAKI-1 cells; [12]): 74%
- activity at 50 µM (CAKI-1 cells; [12]): 65%
- activity at 100 µM (CAKI-1 cells; [12]): 60%
- activity at 150 µM (CAKI-1 cells; [12]): 53%
- activity at 500 µM (CAKI-1 cells; [12]): 47%
- IC50 (CAKI-1 cells; CAKI-1, read-out: active substance concentration at which 3H-thymidine insertion was 50% inhibited): 375 µM
- activity at 1 µM (At T 20; [13]): 100%
- activity at 2 µM (At T 20; [13]): 94%
- activity at 4 µM (At T 20; [13]): 89%
- activity at 8 µM (At T 20; [13]): 83%
- activity at 16 µM (At T 20; [13]): 72%
- activity at 25 µM (At T 20; [13]): 69%
- activity at 50 µM (At T 20; [13]): 64%
- activity at 100 µM (At T 20; [13]): 58%
- activity at 250 µM (At T 20; [13]): 49%
- activity at 500 µM (At T 20; [13]): 44%
- IC50 (At T 20; AtT20, read-out: active substance concentration at which 3H-thymidine insertion was 50% inhibited): 250 µM
